This is an account of results in patent US10287255B2, “Compounds as histone deacetylase 6 inhibitors and pharmaceutical compositions comprising the same” (CHONG KUN DANG PHARMACEUTICAL CORP., priority 2014, dated 2019).

The target of one assay is T1, human recombinant HDAC1 (Homo sapiens, UniProt Q13547).
T1 construct: purchased Enzo Life Science BML-SE456
In words: HDAC1 enzyme activity inhibition assay (in vitro, fluorimetric). The class given is biochemical. As to conditions: human recombinant HDAC1, fluorimetric kit, 30° C. 60 minutes. An outline of the steps: (§1)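 Human recombinant enzyme (0.3 μg for HDAC1) reacted with 10 μM Fluor de Lys-SIRT1 substrate and 5-fold compound dilutions at 30 °C for 60 min, then developer for 30 min. Fluorescence read at Ex 360/Em 460; IC50 calculated. HDAC6 run by the same protocol.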

The next assay concerns the target T2, human recombinant HDAC6 (Homo sapiens, UniProt Q9UBN7).
T2 construct: purchased Calbiochem 382180
T2 sequence (Q9UBN7 1-1215): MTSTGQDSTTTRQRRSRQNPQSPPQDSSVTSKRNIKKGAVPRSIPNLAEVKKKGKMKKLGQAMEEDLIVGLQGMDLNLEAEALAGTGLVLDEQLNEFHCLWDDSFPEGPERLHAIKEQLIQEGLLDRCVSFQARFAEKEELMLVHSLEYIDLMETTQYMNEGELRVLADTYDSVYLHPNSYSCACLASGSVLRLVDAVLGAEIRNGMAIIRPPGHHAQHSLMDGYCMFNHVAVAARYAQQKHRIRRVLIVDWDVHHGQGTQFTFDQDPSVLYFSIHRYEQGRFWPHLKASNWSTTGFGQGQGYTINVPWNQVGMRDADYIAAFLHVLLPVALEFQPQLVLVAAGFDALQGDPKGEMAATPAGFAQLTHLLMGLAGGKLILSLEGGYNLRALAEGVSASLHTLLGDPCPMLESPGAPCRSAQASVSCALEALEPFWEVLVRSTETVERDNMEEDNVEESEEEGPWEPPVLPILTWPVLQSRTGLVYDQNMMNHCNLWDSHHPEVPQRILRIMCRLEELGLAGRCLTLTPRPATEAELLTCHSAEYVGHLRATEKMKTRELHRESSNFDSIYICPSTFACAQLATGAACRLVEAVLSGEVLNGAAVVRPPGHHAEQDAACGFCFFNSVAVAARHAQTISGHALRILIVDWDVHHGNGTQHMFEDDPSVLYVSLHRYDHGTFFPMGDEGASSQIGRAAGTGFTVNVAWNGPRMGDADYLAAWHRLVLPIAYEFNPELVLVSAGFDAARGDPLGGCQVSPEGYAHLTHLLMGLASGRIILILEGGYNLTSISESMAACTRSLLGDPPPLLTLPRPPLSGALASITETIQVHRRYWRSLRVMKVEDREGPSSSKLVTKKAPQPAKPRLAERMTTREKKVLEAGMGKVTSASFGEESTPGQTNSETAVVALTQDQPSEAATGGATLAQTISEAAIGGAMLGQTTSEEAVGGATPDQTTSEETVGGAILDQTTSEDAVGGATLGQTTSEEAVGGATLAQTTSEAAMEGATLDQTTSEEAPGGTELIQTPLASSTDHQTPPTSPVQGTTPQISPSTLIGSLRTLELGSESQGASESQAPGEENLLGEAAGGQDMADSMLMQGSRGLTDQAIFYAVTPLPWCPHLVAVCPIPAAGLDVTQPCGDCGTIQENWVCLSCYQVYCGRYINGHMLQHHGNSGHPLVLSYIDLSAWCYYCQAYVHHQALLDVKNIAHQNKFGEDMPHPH
Kind of assay: HDAC6 enzyme activity inhibition assay (in vitro, fluorimetric). It counts as biochemical. As to conditions: for HDAC6 selectivity (fold): HDAC6 selectivity over HDAC1; for pIC50: human recombinant HDAC6, fluorimetric kit, same protocol as HDAC1. The gist of the method: as §1

Structures are written as SMILES. pIC50: −log10 of the molar value.

T1 sequence (Q13547 whole entry): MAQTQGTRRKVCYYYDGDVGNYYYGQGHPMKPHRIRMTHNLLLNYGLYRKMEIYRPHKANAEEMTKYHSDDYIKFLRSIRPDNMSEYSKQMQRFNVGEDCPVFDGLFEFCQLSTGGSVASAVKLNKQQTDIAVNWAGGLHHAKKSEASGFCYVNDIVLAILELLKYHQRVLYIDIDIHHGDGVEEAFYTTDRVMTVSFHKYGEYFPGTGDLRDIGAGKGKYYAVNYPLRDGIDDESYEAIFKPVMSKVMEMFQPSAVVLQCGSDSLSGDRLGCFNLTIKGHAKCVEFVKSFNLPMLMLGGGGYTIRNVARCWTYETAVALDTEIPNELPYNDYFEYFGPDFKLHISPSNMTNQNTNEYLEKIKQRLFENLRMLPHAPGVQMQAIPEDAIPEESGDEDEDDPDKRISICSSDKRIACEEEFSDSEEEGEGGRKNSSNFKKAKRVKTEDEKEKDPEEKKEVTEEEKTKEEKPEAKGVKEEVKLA

In the case of `CC(C)N1CCN(Cc2cccc(C(=O)N3[C@H](C)CN(Cc4ccc(C(=O)NO)cc4)C[C@@H]3C)c2)CC1` [Compound 434, N-hydroxy-4-(((3R,5S)-4-(3-((4-isopropylpiperazin-1-yl)methyl)benzoyl)-3,5-dimethylpiperazin-1-yl)methyl)benzamide], the negative-log IC50 (pIC50) is 5.43 at human recombinant HDAC1 and 7.22 on human recombinant HDAC6. Further, the “HDAC6 selectivity (fold)” value on human recombinant HDAC6 turned out to be 61 fold.
In the case of `C[C@@H]1CN(Cc2ccc(C(=O)NO)cc2)C[C@H](C)N1C(=O)c1ccccc1C1=CCC(C)(C)CC1` [Compound 288, 4-(((3R,5S)-4-(4′,4′-dimethyl-2′,3′,4′,5′-tetrahydro-[1,1′-biphenyl]-2-carbonyl)-3,5-dimethylpiperazin-1-yl)methyl)-N-hydroxybenzamide], the negative logarithm of the IC50 (pIC50) at human recombinant HDAC1 is 4.97; on human recombinant HDAC6, 6.49. In addition, on human recombinant HDAC6, the “HDAC6 selectivity (fold)” value amounted to 33 fold.
Take `C[C@@H]1CN(Cc2ccc(C(=O)NO)cc2)C[C@H](C)N1C(=O)c1ccccc1-c1ccncc1` [Compound 285, 4-(((3R,5S)-3,5-dimethyl-4-(2-(pyridin-4-yl)benzoyl)piperazin-1-yl)methyl)-N-hydroxybenzamide]: the pIC50 was 5.15 on human recombinant HDAC1 and 7.03 on human recombinant HDAC6. Besides, the “HDAC6 selectivity (fold)” value at human recombinant HDAC6 is listed as 75 fold.
Take `C[C@@H]1CN(Cc2ccc(C(=O)NO)cc2)C[C@H](C)N1Cc1ccc(CN2CC[C@@H](F)C2)cc1` [Compound 411, 4-(((3R,5S)-4-(4-(((R)-3-fluoropyrrolidin-1-yl)methyl)benzyl)-3,5-dimethylpiperazin-1-yl)methyl)-N-hydroxybenzamide]: the pIC50 at human recombinant HDAC1 was 5.37. Further, at human recombinant HDAC6, the “HDAC6 selectivity (fold)” value turned out to be 538 fold and the negative-log IC50 (pIC50) is 8.10.
`Cc1cccc(NC(=S)N2C[C@@H](C)N(Cc3ccc(C(=O)NO)cc3)[C@@H](C)C2)c1` [Compound 189, 4-(((2S,6R)-2,6-dimethyl-4-(m-tolylcarbamothioyl)piperazin-1-yl)methyl)-N-hydroxybenzamide]: the pIC50 on human recombinant HDAC1 was 5.52. Besides, at human recombinant HDAC6, the “HDAC6 selectivity (fold)” value was found to be 10 fold and the negative logarithm of the IC50 (pIC50) was 6.52.
With `C[C@@H]1CN(Cc2ccc(C(=O)NO)cc2)C[C@H](C)N1C(=O)c1ccncc1` [Compound 405, N-hydroxy-4-(((3R,5S)-4-isonicotinoyl-3,5-dimethylpiperazin-1-yl)methyl)benzamide], the pIC50 was 5.37 on human recombinant HDAC1 and 6.61 on human recombinant HDAC6. On human recombinant HDAC6, the “HDAC6 selectivity (fold)” value worked out at 17 fold.
Consider `CCN(CC)Cc1cccc(C(=O)N2[C@H](C)CN(Cc3ccc(C(=O)NO)cc3)C[C@@H]2C)c1` [Compound 425, 4-(((3R,5S)-4-(3-((diethylamino)methyl)benzoyl)-3,5-dimethylpiperazin-1-yl)methyl)-N-hydroxybenzamide], for which the negative logarithm of the IC50 (pIC50) is 5.82 on human recombinant HDAC1 and 7.07 at human recombinant HDAC6. In addition, on human recombinant HDAC6, the “HDAC6 selectivity (fold)” value was 17 fold.
`C[C@@H]1CN(C(=O)Nc2ccc3c(c2)CCO3)C[C@H](C)N1Cc1ccc(C(=O)NO)cc1` [Compound 187, (3R,5S)-N-(2,3-dihydrobenzofuran-5-yl)-4-(4-(hydroxycarbamoyl)benzyl)-3,5-dimethylpiperazine-1-carboxamide]: at human recombinant HDAC1, the negative-log IC50 (pIC50) is 5.96. At human recombinant HDAC6, the “HDAC6 selectivity (fold)” value was 5 fold and the negative logarithm of the IC50 (pIC50) is 6.62.
Consider `C[C@@H]1CN(C(=O)c2ccccc2Cl)C[C@H](C)N1Cc1ccc(C(=O)NO)cc1` [Compound 108, 4-(((2S,6R)-4-(2-chlorobenzoyl)-2,6-dimethylpiperazin-1-yl)methyl)-N-hydroxybenzamide], for which the pIC50 was 4.88 on human recombinant HDAC1 and 6.78 on human recombinant HDAC6. The “HDAC6 selectivity (fold)” value on human recombinant HDAC6 is 79 fold.
For `C[C@@H]1CN(Cc2ccc(C(=O)NO)cc2)C[C@H](C)N1Cc1ccccc1F` [Compound 211, 4-(((3R,5S)-4-(2-fluorobenzyl)-3,5-dimethylpiperazin-1-yl)methyl)-N-hydroxybenzamide], in that order: under 5.00, 7.19 and over 154 fold.
As for `C[C@@H]1CN(Cc2ccc(C(=O)NO)cc2)C[C@H](C)N1C(=O)c1ccccc1-c1cccnc1` [Compound 286, 4-(((3R,5S)-3,5-dimethyl-4-(2-(pyridin-3-yl)benzoyl)piperazin-1-yl)methyl)-N-hydroxybenzamide], at human recombinant HDAC1, the negative logarithm of the IC50 (pIC50) was 4.88. At human recombinant HDAC6, the “HDAC6 selectivity (fold)” value is recorded as 81 fold and the negative logarithm of the IC50 (pIC50) is 6.79.
As for `C[C@@H]1CN(Cc2ccccc2)C[C@H](C)N1Cc1ccc(C(=O)NO)cc1` [Compound 081, 4-(((2S,6R)-4-benzyl-2,6-dimethylpiperazin-1-yl)methyl)-N-hydroxybenzamide], the pIC50 at human recombinant HDAC1 was 4.95; on human recombinant HDAC6, 6.84. Further, the “HDAC6 selectivity (fold)” value at human recombinant HDAC6 stood at 78 fold.
`C[C@@H]1CN(Cc2ccc(C(=O)NO)cc2)C[C@H](C)N1Cc1cccc(OCC2CCN(CC(C)(C)F)CC2)c1` [Compound 380, 4-(((3R,5S)-4-(3-((1-(2-fluoro-2-methylpropyl)piperidin-4-yl)methoxy)benzyl)-3,5-dimethylpiperazin-1-yl)methyl)-N-hydroxybenzamide]: at human recombinant HDAC1, the pIC50 was under 5.00. Also, at human recombinant HDAC6, the “HDAC6 selectivity (fold)” value is recorded as over 62 fold and the pIC50 is 6.79.
Taken in the same sequence, the figures for `C[C@@H]1CN(C(=O)Cc2cccc(C3=CCOCC3)c2)C[C@H](C)N1Cc1ccc(C(=O)NO)cc1` [Compound 252, 4-(((2S,6R)-4-(2-(3-(3,6-dihydro-2H-pyran-4-yl)phenyl)acetyl)-2,6-dimethylpiperazin-1-yl)methyl)-N-hydroxybenzamide] were 4.76, 79 fold and 6.66.
Taken in the same sequence, the figures for `C[C@@H]1CN(C(=O)c2ccc(CC(=O)NO)cc2)C[C@H](C)N1Cc1ccccc1` [Compound 823, 2-(4-((3R,5S)-4-benzyl-3,5-dimethylpiperazine-1-carbonyl)phenyl)-N-hydroxyacetamide] were 5.57, 66 fold and 7.40.
In the case of `C[C@@H]1CN(Cc2ccc(C(=O)NO)c(O)c2)C[C@H](C)N1Cc1cccc(CN2CCOCC2)c1` [Compound 653, 4-(((3R,5S)-3,5-dimethyl-4-(3-(morpholinomethyl)benzyl)piperazin-1-yl)methyl)-N,2-dihydroxybenzamide], the negative logarithm of the IC50 (pIC50) on human recombinant HDAC1 is under 5.00. On human recombinant HDAC6, the “HDAC6 selectivity (fold)” value is recorded as over 23 fold and the pIC50 is 6.38.
For `C[C@@H]1CN(Cc2ccc(C(=O)NO)cc2)C[C@H](C)N1C(=O)c1ccccc1C1=CCOCC1` [Compound 326, 4-(((3R,5S)-4-(2-(3,6-dihydro-2H-pyran-4-yl)benzoyl)-3,5-dimethylpiperazin-1-yl)methyl)-N-hydroxybenzamide], in that order: under 5.00, over 172 fold and 7.24.
Taken in the same sequence, the figures for `C[C@@H]1CN(Cc2ccc(C(=O)NO)cc2)C[C@H](C)N1C(=O)c1cccc(-c2ccoc2)c1` [Compound 243, 4-(((3R,5S)-4-(3-(furan-3-yl)benzoyl)-3,5-dimethylpiperazin-1-yl)methyl)-N-hydroxybenzamide] were 5.52, 40 fold and 7.13.
